In PubChem BioAssay AID179 (DTP/NCI, 2004):
Several values for one entry are separate records, joined by “and”; a condition that tells them apart may be missing. Equal entries are not always repeated. Activity calls are given as the source filed them.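 Rule for the calls: active = compounds giving half or more protection of infected cells from virus-caused growth loss, again on retest; inactive = the rest.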 Where a SMILES comes first, the peptide text is derived from it.

System: CEM cells HIV-1 protection, formazan growth assay
Assay: NCI AIDS Antiviral Assay
Conditions: for IC50: measured here: growth of uninfected CEM cells
How it was run: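 Protection of CEM cells against HIV-1 was scored from cell growth (soluble formazan) across five concentrations, with parallel uninfected cells. Lack of protection may reflect toxicity.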

`CCOC(=O)c1nc2ccccc2nc1NCc1ccc(OC)c(OC)c1` showed an EC50 greater than 200 µM and an IC50 greater than 200 µM.
Work on `C=C1C(=O)C23C(O)C1CC[C@H]2C12CCCC(C)(COC(C)=O)[C@H]1[C@H](O)[C@]3(O)OC2` (stereo partly drawn) yielded an EC50 greater than 324 µM and an IC50 of 0.398 µM.
Work on `O=C(NNc1ccccc1)/C(=C/c1ccc2c(c1)OCO2)NC(=O)c1ccccc1` yielded an EC50 greater than 12.9 µM and an IC50 greater than 12.9 µM.
Molecule `CCOC(OCC)(OCC)C(Br)CC` (stereo not drawn) has an EC50 greater than 933 µM and an IC50 greater than 933 µM.
In the case of `Nc1ccn(C2OC(COP(=O)(O)O)C(O)OC2O)c(=O)n1` (stereo not drawn), the outcome is reported as “inactive”.
For `[CH2+][B-]1(C)n2ccc[n+]2[B-](C)(C)[n+]2cccn21`, the EC50 was greater than 200 µM and the IC50 was greater than 100 µM.
For `O=[N+]([O-])c1ccc(C[P+](c2ccccc2)(c2ccccc2)c2ccccc2)cc1`, the EC50 was greater than 200 µM and the IC50 was 87.1 µM and 40.7 µM.
Work on `C=C1C(=O)OC2C1CCC(C)C1C=CC(=O)C12C` (stereo not drawn) yielded an EC50 greater than 200 µM and an IC50 of 1.07 µM.
`COC(=O)C1=C(OC(C)=O)c2ccccc2CS1` gave an EC50 greater than 135 µM and an IC50 of 123 µM.
Work on `Cc1cn(COCCOP(=O)(OCOC(=O)C(C)(C)C)OCOC(=O)C(C)(C)C)c(=O)[nH]c1=O` yielded an EC50 greater than 200 µM and an IC50 of 110 µM.
In the case of `O=c1oc2cccnc2n1CCN1CCN(c2ccc(Oc3ccccc3)cc2)CC1`, the EC50 is reported as greater than 200 µM and the IC50 is reported as 52.5 µM.
`COC(=O)C(=O)C(C(=O)OC)C(=O)C(=O)Nc1cc(Cl)c(Cl)cc1Cl` (stereo not drawn) showed an EC50 greater than 17.4 µM and an IC50 greater than 17.4 µM.
For `CC[C@@]1(C[C@H]2C[C@@]3(C(=O)OC)c4[nH]c5ccccc5c4CCN3C2=S)COC2(CCCCC2)O1`, the EC50 was greater than 200 µM and the IC50 was greater than 200 µM.
`O=CNc1cccc2c(=O)[nH][nH]c(=O)c12` was tested, and the EC50 was greater than 126 µM and the IC50 was greater than 126 µM.
With `CC(NC(=O)C(CCCCN)NC(=O)C(N)CC(=O)O)C(=O)NC(CO)C(=O)NC(Cc1ccc(O)cc1)C(=O)NC(CO)C(=O)NC(C(=O)NC(CC(N)=O)C(=O)NC(Cc1cnc[nH]1)C(=O)O)C(C)O` (stereo not drawn) (H-DKASYSTNH-OH; configuration not given here) the EC50 was greater than 49 µM and the IC50 was greater than 49 µM.
Molecule `O=C(O)c1ccc(C2=Cc3cc(Cl)ccc3OC2)cc1` has an EC50 greater than 66.1 µM and an IC50 greater than 66.1 µM.
Work on `O=C1Sc2ccccc2C(=O)N2CCCC12` (stereo not drawn) yielded an EC50 greater than 200 µM and an IC50 greater than 200 µM.
In the case of `Cc1ccc(-c2c3nc(c(-c4ccc(C)cc4)c4ccc([nH]4)c(-c4ccc(OCC5COC(C)(C)O5)cc4)c4nc(c(-c5ccc(C)cc5)c5ccc2[nH]5)C=C4)C=C3)cc1` (stereo not drawn), the EC50 is reported as greater than 100 µM and the IC50 is reported as greater than 100 µM.
`N#C/C(=C\n1c(=S)[nH]c2ccccc21)c1nc2ccccc2s1` was tested, and the EC50 was greater than 200 µM and the IC50 was greater than 200 µM.
`CCOC(=O)/C=C/c1ccccc1Br` was tested, and the EC50 was greater than 38.9 µM and the IC50 was greater than 38.9 µM.
In the case of `Cn1ncc2c(=O)[nH]cnc21`, the EC50 is reported as greater than 316 µM and the IC50 is reported as greater than 316 µM.
`Cc1nc(Nc2ccc(Cl)cc2)sc1C(=O)Nc1cccc2c(=O)[nH][nH]c(=O)c12` was tested, and the EC50 was greater than 17 µM and the IC50 was greater than 17 µM.
`CCOC(=O)c1c(C)cc(=O)n2c1[nH]c1ccccc12` showed an EC50 greater than 200 µM and an IC50 of 151 µM.
In the case of `ON=C1/C(=N\O)CCC/C1=N/O`, the EC50 is reported as greater than 1050 µM and the IC50 is reported as 19.1 µM.
`CCCCOC(=O)NC(Nc1ccc(S(N)(=O)=O)cc1)(C(F)(F)F)C(F)(F)F` was tested, and the EC50 was greater than 200 µM and the IC50 was greater than 200 µM.
In the case of `CCCc1cc(=O)oc2c3c(c4c(c12)OC(C)(C)C=C4)O[C@@H](C)[C@H](C)C3=O`, the EC50 is reported as 4.9 µM and the IC50 is reported as 97.7 µM.
Molecule `COC(=O)C(CCCCCCCC(C(=O)OC)c1nc2n(c1O)C(=N)N=N2)c1nc2n(c1O)C(=N)N=N2` (stereo not drawn) has an EC50 greater than 7.41 µM and an IC50 greater than 7.41 µM.
Molecule `Cn1cc2ccccc2c1-c1nc(F)nc(F)n1` has an EC50 greater than 15.1 µM and an IC50 greater than 15.1 µM.
With `CC(C)(CO)N=Cc1ccccc1[O-].CC(C)(CO)N=Cc1ccccc1[O-].[Co+2]` the EC50 was greater than 151 µM and the IC50 was greater than 151 µM.
For `Fc1ccc(NC2=NCCN=C(Nc3ccc(F)cc3)SS2)cc1`, the EC50 was greater than 200 µM and the IC50 was 24.5 µM.
For `Cc1ccccc1C(O)(c1nccn1C)c1nccn1C`, the EC50 was greater than 200 µM and the IC50 was greater than 200 µM.
`CCC(CON(C)c1ccccc1)(SC)SC` showed an EC50 greater than 200 µM and an IC50 of 105 µM.
With `C[C@@]12[Se]c3ccccc3[C@]1(C)[Se]c1ccccc12` the outcome was “inactive”.
With `c1ccc(N=C(Nc2ccccc2)N2CCCCC2)cc1` the EC50 was greater than 200 µM and the IC50 was 77.6 µM.
Work on `CCCNC(=O)N1CC(CN2CCN(c3ccccc3)CC2)O/C1=N/C(=O)Nc1ccccc1` (stereo not drawn) yielded an EC50 greater than 200 µM and an IC50 of 77.6 µM.
With `O=S1(=O)c2ccccc2-c2nccc3ccnc1c23` the outcome was “inactive”.
`CC1=CCC(C(C)(C)NC(=O)c2ccccc2)C/C1=N/O` (stereo not drawn) showed an EC50 greater than 91.2 µM and an IC50 greater than 91.2 µM.
`COC(=O)C12C=CC(C1)n1c(=O)n(-c3ccccc3)c(=O)n12` (stereo not drawn) was tested, and the EC50 was greater than 295 µM and the IC50 was 275 µM.
`Cc1cc2c(c(=O)[nH]1)C(=O)OC2` gave an EC50 greater than 1100 µM and an IC50 greater than 1100 µM.
`Cc1nc(Cc2n[nH]c(C)n2)n[nH]1` was tested, and the EC50 was greater than 200 µM and the IC50 was greater than 200 µM.
With `CCOC(=O)/C=C/SCCC(=O)OC` the EC50 was greater than 1150 µM and the IC50 was 891 µM.
`CCc1n[nH]c(=O)n1/N=C/c1ccccc1O` was tested, and the EC50 was greater than 200 µM and the IC50 was greater than 200 µM.
With `Cc1cc(C)c(P2C(=C(O[Si](C(C)C)(C(C)C)C(C)C)C(C)(C)C)C2(c2ccccc2)c2ccccc2)c(C)c1` (stereo not drawn) the EC50 was greater than 100 µM and the IC50 was greater than 100 µM.
In the case of `CCOC(=O)/C(C(=S)NCc1ccccc1)=C(/N)N1CCCC1`, the EC50 is reported as greater than 200 µM and the IC50 is reported as greater than 200 µM.
For `CC(C)(C)OC(=O)N1CCCC1C(=O)N1CCCC1C(=O)Oc1ccccc1` (stereo not drawn), the EC50 was greater than 67.6 µM and the IC50 was greater than 67.6 µM.
In the case of `S=C(N/N=C(/c1ccccc1)c1ccccn1)N(Cc1ccccn1)Cc1ccccn1`, the EC50 is reported as greater than 200 µM and the IC50 is reported as 0.0631 µM.
In the case of `COc1cc2c(c(C(C)(C)C)c1)OC1(O)C2=CC(=O)C=C1C(C)(C)C` (stereo not drawn), the EC50 is reported as greater than 20 µM and the IC50 is reported as 0.372 µM.
With `CCN(CC)CC(=O)Nc1c(C)cc(C(=O)NN)cc1C` the EC50 was greater than 200 µM and the IC50 was greater than 200 µM.
`C=CC(=O)N1C/C(=C\c2ccc(Cl)c(Cl)c2)C(=O)/C(=C/c2ccc(Cl)c(Cl)c2)C1` gave an EC50 greater than 5.89 µM and an IC50 of 0.0372 µM.
For `N#CC1C(=O)N(c2ccccc2)NC12OC(=O)c1ccncc12` (stereo not drawn), the EC50 was greater than 200 µM and the IC50 was greater than 200 µM.
For `C=CC(=O)c1ccc2c(c1)OCCOCCOCCOCCOCCO2`, the EC50 was greater than 676 µM and the IC50 was 7.08 µM.
`COC(=O)c1cc(Cc2cc(Br)c(OC)c(C(=O)OC)c2)cc(Br)c1OC` showed an EC50 greater than 200 µM and an IC50 of 162 µM.
Molecule `CC1CCCc2c1c1ccc3c(O)cccc3c1oc2=O` (stereo not drawn) has an EC50 greater than 7.08 µM and an IC50 greater than 7.08 µM.
For `NCc1ccccc1-c1c2nc(c(-c3ccccc3CN)c3ccc([nH]3)c(-c3ccccc3CN)c3nc(c(-c4ccccc4CN)c4ccc1[nH]4)C=C3)C=C2`, the EC50 was greater than 9.77 µM and the IC50 was greater than 9.77 µM.
`CC1(C)CN(CCC#N)C(c2ccc([N+](=O)[O-])cc2)O1` (stereo not drawn) was tested, and the EC50 was greater than 200 µM and the IC50 was 102 µM.
`O=C(Nc1ccc(CN2CCOCC2)cc1)c1ccc(C(=O)Nc2ccc(CN3CCOCC3)cc2)cc1` gave an EC50 greater than 200 µM and an IC50 greater than 200 µM.
Molecule `COC(=O)C1=C(C(=O)OC)N(C(C)C)[C@H]2C(C(=O)OC)=C(C(=O)OC)N(C(C)C)[C@@H]12` has an EC50 greater than 2.45 µM and an IC50 greater than 2.45 µM.
`COc1cc2c(cc1OC)C(C1c3cc(OC)c(OC)cc3-c3c(OC)c(OC)cc4c3C1N(C)CC4)C1c3c(cc(OC)c(OC)c3-2)CCN1C` (stereo not drawn) was tested, and the outcome was “inactive”.
In the case of `O=C1NC(=O)C(Cc2cccc(OCc3ccccc3)c2)C(=O)N1`, the EC50 is reported as greater than 200 µM and the IC50 is reported as greater than 200 µM.
Molecule `Nc1ccccc1C1=Nc2cncnc2NC1` has an EC50 greater than 417 µM and an IC50 of 295 µM.
Work on `Cc1c(NC(=S)Nc2ccc([N+](=O)[O-])cc2)c(=O)n(-c2ccccc2)n1C` yielded an EC50 greater than 200 µM and an IC50 greater than 200 µM.
